Source: PMC9481151, “Discovery of new symmetrical and asymmetrical nitrile-containing 1,4-dihydropyridine derivatives as dual kinases and P-glycoprotein inhibitors: synthesis, in vitro assays, and in silico studies” (Journal of Enzyme Inhibition and Medicinal Chemistry, 2022)

What was measured:
SF-539 = assay: NCI single dose (10 µM) SRB screen; type: cell-based, human; settings: CNS cancer, 48 h
HCT-15 = assay: NCI single dose (10 µM) SRB screen; type: cell-based, human; settings: colon cancer, 48 h
NCI/ADR-RES = assay: NCI single dose (10 µM) SRB screen; type: cell-based, human; settings: ovarian cancer, 48 h
SK-MEL-5 = assay: NCI single dose (10 µM) SRB screen; type: cell-based, human; settings: melanoma, 48 h
IGROV1 = assay: NCI single dose (10 µM) SRB screen; type: cell-based, human; settings: ovarian cancer, 48 h
SN12C = assay: NCI single dose (10 µM) SRB screen; type: cell-based, human; settings: renal cancer, 48 h
MDA-MB-231 = assay: NCI single dose (10 µM) SRB screen; type: cell-based, human; settings: breast cancer, 48 h
OVCAR-4 = assay: NCI single dose (10 µM) SRB screen; type: cell-based, human; settings: ovarian cancer, 48 h
T-47D = assay: NCI single dose (10 µM) SRB screen; type: cell-based, human; settings: breast cancer, 48 h
TK-10 = assay: NCI single dose (10 µM) SRB screen; type: cell-based, human; settings: renal cancer, 48 h
OVCAR-5 = assay: NCI single dose (10 µM) SRB screen; type: cell-based, human; settings: ovarian cancer, 48 h
SW-620 = assay: NCI single dose (10 µM) SRB screen; type: cell-based, human; settings: colon cancer, 48 h
EKVX = assay: NCI single dose (10 µM) SRB screen; type: cell-based, human; settings: non-small cell lung cancer, 48 h
NCI-H460 = assay: NCI single dose (10 µM) SRB screen; type: cell-based, human; settings: non-small cell lung cancer, 48 h
UACC-257 = assay: NCI single dose (10 µM) SRB screen; type: cell-based, human; settings: melanoma, 48 h
NCI-H522 = assay: NCI single dose (10 µM) SRB screen; type: cell-based, human; settings: non-small cell lung cancer, 48 h
K-562 = assay: NCI single dose (10 µM) SRB screen; type: cell-based, human; settings: leukaemia, 48 h
KM12 = assay: NCI single dose (10 µM) SRB screen; type: cell-based, human; settings: colon cancer, 48 h
UO-31 = assay: NCI single dose (10 µM) SRB screen; type: cell-based, human; settings: renal cancer, 48 h
PC-3 = assay: NCI single dose (10 µM) SRB screen; type: cell-based, human; settings: prostate cancer, 48 h
ACHN = assay: NCI single dose (10 µM) SRB screen; type: cell-based, human; settings: renal cancer, 48 h
HOP-92 = assay: NCI single dose (10 µM) SRB screen; type: cell-based, human; settings: non-small cell lung cancer, 48 h
NCI-H322M = assay: NCI single dose (10 µM) SRB screen; type: cell-based; settings: non-small cell lung cancer, 48 h
HCC-2998 = assay: NCI single dose (10 µM) SRB screen; type: cell-based, human; settings: colon cancer, 48 h
Escherichia coli = assay: Agar well diffusion method; settings: for % activity index, E. coli: relative to ciprofloxacin
M14 = assay: NCI single dose (10 µM) SRB screen; type: cell-based, human; settings: melanoma, 48 h
LOX IMVI = assay: NCI single dose (10 µM) SRB screen; type: cell-based, human; settings: melanoma, 48 h
HCT-116 = assay: NCI single dose (10 µM) SRB screen; type: cell-based, human; settings: colon cancer, 48 h
U251 = assay: NCI single dose (10 µM) SRB screen; type: cell-based, human; settings: CNS cancer, 48 h
SK-MEL-2 = assay: NCI single dose (10 µM) SRB screen; type: cell-based, human; settings: melanoma, 48 h
MDA-MB-468 = assay: NCI single dose (10 µM) SRB screen; type: cell-based, human; settings: breast cancer, 48 h
MCF7 = assay: NCI single dose (10 µM) SRB screen; type: cell-based, human; settings: breast cancer, 48 h
Aspergillus flavus = assay: Agar well diffusion method; settings: for zone of inhibition at 1000 µg/mL: Aspergillus flavus, 24 h, read-out: Diameter of inhibition zone, A. flavus; for % activity index, A. flavus: relative to clotrimazole
NCI 60 cancer cell lines = assay: NCI single dose (10 µM) SRB screen, mean over panel; type: cell-based, human; settings: mean over 60 cell lines, 48 h
UACC-62 = assay: NCI single dose (10 µM) SRB screen; type: cell-based, human; settings: melanoma, 48 h
COLO 205 = assay: NCI single dose (10 µM) SRB screen; type: cell-based, human; settings: colon cancer, 48 h
786-0 = assay: NCI single dose (10 µM) SRB screen; type: cell-based, human; settings: renal cancer, 48 h
DU-145 = assay: NCI single dose (10 µM) SRB screen; type: cell-based, human; settings: prostate cancer, 48 h
SF-268 = assay: NCI single dose (10 µM) SRB screen; type: cell-based, human; settings: CNS cancer, 48 h
A498 = assay: NCI single dose (10 µM) SRB screen; type: cell-based, human; settings: renal cancer, 48 h
Candida albicans = assay: Agar well diffusion method; settings: for % activity index, C. albicans: relative to clotrimazole
HS578T = assay: NCI single dose (10 µM) SRB screen; type: cell-based, human; settings: breast cancer, 48 h
NCI-H23 = assay: NCI single dose (10 µM) SRB screen; type: cell-based, human; settings: non-small cell lung cancer, 48 h
SNB-19 = assay: NCI single dose (10 µM) SRB screen; type: cell-based, human; settings: CNS cancer, 48 h
RXF 393 = assay: NCI single dose (10 µM) SRB screen; type: cell-based, human; settings: renal cancer, 48 h
OVCAR-8 = assay: NCI single dose (10 µM) SRB screen; type: cell-based, human; settings: ovarian cancer, 48 h
OVCAR-3 = assay: NCI single dose (10 µM) SRB screen; type: cell-based, human; settings: ovarian cancer, 48 h
SR = assay: NCI single dose (10 µM) SRB screen; type: cell-based, human; settings: leukaemia, 48 h
MALME-3M = assay: NCI single dose (10 µM) SRB screen; type: cell-based, human; settings: melanoma, 48 h
NCI-H226 = assay: NCI single dose (10 µM) SRB screen; type: cell-based, human; settings: non-small cell lung cancer, 48 h
HT29 = assay: NCI single dose (10 µM) SRB screen; type: cell-based, human; settings: colon cancer, 48 h
MOLT-4 = assay: NCI single dose (10 µM) SRB screen; type: cell-based, human; settings: leukaemia, 48 h
CAKI-1 = assay: NCI single dose (10 µM) SRB screen; type: cell-based, human; settings: renal cancer, 48 h

## COC(=O)C1=C(C)NC(C)=C(C(=O)OCc2ccccc2)C1c1cccc(C#N)c1 (racemic) [Compound 2e, (±)-3-Benzyl 5-methyl 4-(3-cyanophenyl)-2,6-dimethyl-1,4-dihydropyridine-3,5-dicarboxylate]
SF-539
  GI% SF-539: 32%
HCT-15
  GI% HCT-15: 66%
NCI/ADR-RES
  GI% NCI/ADR-RES: 25%
SK-MEL-5
  GI% SK-MEL-5: 37%
IGROV1
  GI% IGROV1: 36%
SN12C
  GI% SN12C: – (Only GI% ≥ 10 are shown)
MDA-MB-231
  GI% MDA-MB-231: 30%
OVCAR-4
  GI% OVCAR-4: – (Only GI% ≥ 10 are shown)
T-47D
  GI% T-47D: 11%
TK-10
  GI% TK-10: – (Only GI% ≥ 10 are shown)
OVCAR-5
  GI% OVCAR-5: 21%
SW-620
  GI% SW-620: 45%
EKVX
  GI% EKVX: 26%
NCI-H460
  GI% NCI-H460: 64%
UACC-257
  GI% UACC-257: 21%
NCI-H522
  GI% NCI-H522: 24%
K-562
  GI% K-562: 56%
KM12
  GI% KM12: 39%
UO-31
  GI% UO-31: – (Only GI% ≥ 10 are shown)
PC-3
  GI% PC-3: 51%
ACHN
  GI% ACHN: 28%
HOP-92
  GI% HOP-92: 12%
NCI-H322M
  GI% NCI-H322M: – (Only GI% ≥ 10 are shown)
HCC-2998
  GI% HCC-2998: – (Only GI% ≥ 10 are shown)
Escherichia coli
  % activity index, E. coli: – (Values below 25 are of limited value and not shown as they refer either to inactive or non-diffusing compounds)
M14
  GI% M14: 15%
LOX IMVI
  GI% LOX IMVI: 61%
HCT-116
  GI% HCT-116: 71%
U251
  GI% U251: 46%
SK-MEL-2
  GI% SK-MEL-2: – (Only GI% ≥ 10 are shown)
MDA-MB-468
  GI% MDA-MB-468: 33%
MCF7
  GI% MCF7: 29%
Aspergillus flavus
  zone of inhibition at 1000 µg/mL: 10 mm
  % activity index, A. flavus: 40%
NCI 60 cancer cell lines
  Mean GI%: 28%
UACC-62
  GI% UACC-62: 37%
COLO 205
  GI% COLO 205: 43%
786-0
  GI% 786-0: 22%
DU-145
  GI% DU-145: 15%
SF-268
  GI% SF-268: 23%
A498
  GI% A498: 10%
Candida albicans
  % activity index, C. albicans: – (Values below 25 are of limited value and not shown as they refer either to inactive or non-diffusing compounds)
HS578T
  GI% HS578T: 28%
NCI-H23
  GI% NCI-H23: – (Only GI% ≥ 10 are shown)
SNB-19
  GI% SNB-19: 32%
RXF 393
  GI% RXF 393: 14%
OVCAR-8
  GI% OVCAR-8: 34%
OVCAR-3
  GI% OVCAR-3: – (Only GI% ≥ 10 are shown)
SR
  GI% SR: 33%
MALME-3M
  GI% MALME-3M: 24%
NCI-H226
  GI% NCI-H226: 31%
HT29
  GI% HT29: 31%
MOLT-4
  GI% MOLT-4: 56%
CAKI-1
  GI% CAKI-1: 27%

## CCOC(=O)C1=C(C)NC(C)=C(C(=O)OCCOC)C1c1cccc(C#N)c1 (racemic) [Compound 2k, (±)-3-Ethyl 5-(2-methoxyethyl) 4-(3-cyanophenyl)-2,6-dimethyl-1,4-dihydropyridine-3,5-dicarboxylate]
SF-539
  GI% SF-539: – (Only GI% ≥ 10 are shown)
HCT-15
  GI% HCT-15: – (Only GI% ≥ 10 are shown)
NCI/ADR-RES
  GI% NCI/ADR-RES: – (Only GI% ≥ 10 are shown)
SK-MEL-5
  GI% SK-MEL-5: – (Only GI% ≥ 10 are shown)
IGROV1
  GI% IGROV1: – (Only GI% ≥ 10 are shown)
SN12C
  GI% SN12C: – (Only GI% ≥ 10 are shown)
MDA-MB-231
  GI% MDA-MB-231: – (Only GI% ≥ 10 are shown)
OVCAR-4
  GI% OVCAR-4: – (Only GI% ≥ 10 are shown)
T-47D
  GI% T-47D: – (Only GI% ≥ 10 are shown)
TK-10
  GI% TK-10: – (Only GI% ≥ 10 are shown)
OVCAR-5
  GI% OVCAR-5: – (Only GI% ≥ 10 are shown)
SW-620
  GI% SW-620: – (Only GI% ≥ 10 are shown)
EKVX
  GI% EKVX: – (Only GI% ≥ 10 are shown)
NCI-H460
  GI% NCI-H460: – (Only GI% ≥ 10 are shown)
UACC-257
  GI% UACC-257: – (Only GI% ≥ 10 are shown)
NCI-H522
  GI% NCI-H522: – (Only GI% ≥ 10 are shown)
K-562
  GI% K-562: 10%
KM12
  GI% KM12: – (Only GI% ≥ 10 are shown)
UO-31
  GI% UO-31: – (Only GI% ≥ 10 are shown)
PC-3
  GI% PC-3: – (Only GI% ≥ 10 are shown)
ACHN
  GI% ACHN: – (Only GI% ≥ 10 are shown)
NCI-H322M
  GI% NCI-H322M: – (Only GI% ≥ 10 are shown)
HCC-2998
  GI% HCC-2998: – (Only GI% ≥ 10 are shown)
Escherichia coli; Escherichia coli, 24 h, read-out: Diameter of inhibition zone, E. coli
  zone of inhibition at 1000 µg/mL: 15 mm
Escherichia coli
  % activity index, E. coli: 57.7%
M14
  GI% M14: – (Only GI% ≥ 10 are shown)
LOX IMVI
  GI% LOX IMVI: – (Only GI% ≥ 10 are shown)
HCT-116
  GI% HCT-116: – (Only GI% ≥ 10 are shown)
U251
  GI% U251: – (Only GI% ≥ 10 are shown)
SK-MEL-2
  GI% SK-MEL-2: – (Only GI% ≥ 10 are shown)
MDA-MB-468
  GI% MDA-MB-468: – (Only GI% ≥ 10 are shown)
MCF7
  GI% MCF7: – (Only GI% ≥ 10 are shown)
Aspergillus flavus
  zone of inhibition at 1000 µg/mL: 18 mm
  % activity index, A. flavus: 72%
NCI 60 cancer cell lines
  Mean GI%: −1%
UACC-62
  GI% UACC-62: – (Only GI% ≥ 10 are shown)
COLO 205
  GI% COLO 205: – (Only GI% ≥ 10 are shown)
786-0
  GI% 786-0: – (Only GI% ≥ 10 are shown)
DU-145
  GI% DU-145: – (Only GI% ≥ 10 are shown)
SF-268
  GI% SF-268: – (Only GI% ≥ 10 are shown)
A498
  GI% A498: 21%
Candida albicans; Candida albicans, 24 h, read-out: Diameter of inhibition zone, C. albicans
  zone of inhibition at 1000 µg/mL: 16 mm
Candida albicans
  % activity index, C. albicans: 59.2%
HS578T
  GI% HS578T: – (Only GI% ≥ 10 are shown)
NCI-H23
  GI% NCI-H23: – (Only GI% ≥ 10 are shown)
SNB-19
  GI% SNB-19: – (Only GI% ≥ 10 are shown)
RXF 393
  GI% RXF 393: – (Only GI% ≥ 10 are shown)
OVCAR-8
  GI% OVCAR-8: – (Only GI% ≥ 10 are shown)
OVCAR-3
  GI% OVCAR-3: – (Only GI% ≥ 10 are shown)
SR
  GI% SR: 13%
MALME-3M
  GI% MALME-3M: – (Only GI% ≥ 10 are shown)
NCI-H226
  GI% NCI-H226: – (Only GI% ≥ 10 are shown)
HT29
  GI% HT29: – (Only GI% ≥ 10 are shown)
MOLT-4
  GI% MOLT-4: – (Only GI% ≥ 10 are shown)
CAKI-1
  GI% CAKI-1: – (Only GI% ≥ 10 are shown)
